Measurements taken from patent US5424442A, “Water-soluble methine compounds useful in photographic silver halide emulsion containing the same” (Fuji Photo Film Co., Ltd., priority 1990, dated 1995).

Key:
[1] = Solubility in solvents (dissolution in incubator, filtration through microfilter, visible absorption); type: physicochemical
Source text: The solubility of some of the compounds within formula (I) was accurately measured.
The measurement of solubility was made in the following manner.

[2] = Spectral sensitization of photographic silver halide emulsion; design: Yellow filter sensitivity (SY) / Red filter sensitivity (SR): scale not given here; conditions: for Maximum Sensitization: spectrogram, tungsten light source of 2666° K.; for Yellow filter sensitivity (SY): yellow filter SC-50, 5 seconds exposure; for Spectral sensitization performance (in words): added to emulsion as aqueous solution or aqueous dispersion
Description: A silver halide emulsion comprising pure silver bromide and having a cubic crystal form (the area ratio of the plane to the entire surface area of grain being 92%) was prepared and subjected to a sulfur sensitization treatment. The average diameter of silver halide grains contained in the emulsion was 0.68 μm, and 0.74 mol of silver halide per kg of emulsion was contained in the emulsion. One kg of the emulsion was weighed in each of pots. An aqueous solution of each of the compounds of formula (I) indicated in Tables 4 and 5 was added to the pot, and the mixture was mixed with stirring at 40° C. For the purpose of comparison, comparative compounds 1 and 2 wherein counter ion was iodide were dispersed in water and added to respective pots.
Further, 4-hydroxy-6-methyl-1,3,3a,7-tetraazaindene in an amount of 0.1 g/kg of emulsion, sodium salt of 2,4-dichloro-6-hydroxy-1,3,5-triazine in an amount of 0.1 g/kg of emulsion and sodium dodecylbenzenesulfonate in an amount of 0.1 g/kg of emulsion in order were added thereto. The emulsion was then coated on a polyethylene terephthalate film to obtain a photographic material.
Each of these samples was exposed through an optical wedge for 5 seconds by using a yellow filter (SC-50, a product of Fuji Photo Film Co., Ltd.) or a red filter (SC-60, a product of Fuji Photo Film Co., Ltd.) and tungsten light (5400° K.).
A spectrogram was obtained by using a grating spectrograph having a tungsten light source of 2666° K., and the maximum sensitization was measured.
After exposure, the samples were developed at 20° C for 4 minutes by using the following developing solution. The density of each of the developed films was measured by using a densitometer (manufactured by Fuji Photo Film Co., Ltd. Spectral sensitivity, that is, yellow filter sensitivity (SY) or red filter sensitivity (SR), sensitivity (SB) in the sensitive region inherent in silver halide, and fog were determined. Sensitivity was determined when the standard point of optical density was referred to as (Fog+0.2). Composition of Developing Solution […]
Two volumes of water were added thereto to obtain a working solution when used.

[3] = standard point Fog+0.2, Table 4

Row | SMILES | Solubility in MeOH ([1]; MeOH, 37° C., 12 hours, Table 2, 720 min) [mg/mL] | solubility at 12 h ([1]; water, H2O, 37° C., 12 hours, Table 2, read-out: Solubility in H2O) [µg/mL] | Maximum Sensitization ([2]; Table 4) [nm] | Yellow filter sensitivity (SY) [2, 3] | Water solubility (in words) ([1]; water) | Spectral sensitization performance (in words) [2] | Red filter sensitivity (SR) ([2]; red filter SC-60, 5 seconds exposure, standard point Fog+0.2, Table 5) | Maximum Sensitization ([2]; Table 5) [nm]
1 | CCn1c(=Cc2oc3c4ccccc4ccc3[n+]2CC)sc(=C2Sc3ccccc3N2C)c1=O [Compound 134] | > 10 | 6900 | 520 | 1350 | – | – | – | –
2 | CCN1C(=CC=c2sc(=Cc3sc(-c4ccccc4)c(-c4ccccc4)[n+]3CC)n(CC)c2=O)Sc2ccccc21 [Comparative Compound 1, reference compound] | – | – | 638 | 100 | low solubility in water | the desired spectral sensitivity cannot be obtained | – | –
3 | CCn1c(=CC2=CC(=Cc3sc4cc(C)c(C)cc4[n+]3CC)CC(C)(C)C2)sc(=C2Sc3ccccc3N2C)c1=O [Comparative Compound 2, reference compound] | – | – | – | – | low solubility in water | the desired spectral sensitivity cannot be obtained | 100 | 747
